# Data from US20260279694A1, “ELECTROLYTE SOLUTION FOR HYBRID ELECTROLYTIC CAPACITORS AND HYBRID ELECTROLYTIC CAPACITOR” (SANYO CHEMICAL INDUSTRIES, LTD., priority 2023, published 2026).
# Assay: Measurement of acid dissociation constant (pKa) by titration in methanol
# Format: physicochemical
# Conditions: 25° C.; 1 part by weight acid in 99 parts methanol titrated with 0.1 mol/L methanolic potassium hydroxide; pH at half the titrant of first equivalence point
# Method: At 25° C., 99 parts by weight of methanol was added to 1 part by weight of a carboxylic acid (A), and the contents were shaken and mixed until the carboxylic acid (A) was completely dissolved. A 0.1 mol/L methanolic potassium hydroxide solution was added dropwise to the resulting methanol solution of the carboxylic acid (A) to obtain a titration curve having inflection points, and among the inflection points, an inflection point at which the amount of titrant added was the smallest was defined as an equivalence point. The pH at half the amount of titrant added at the equivalence point on the obtained titration curve was read, and the pH was defined as the acid dissociation constant (pKa) of the carboxylic acid (A).
# The pKa of the acid component (A′) was also measured in the same manner as the pKa of the carboxylic acid (A).
Compound,Acid dissociation constant (pKa),pKa
trimellitic acid polyethylene glycol monoester [Example A4],3.6,
"O=C(O)c1ccc(C(=O)O)o1 [2,5-Furandicarboxylic acid, 2,5-furandicarboxylic acid, reference compound]",,3.4
"O=C(O)c1c(C(=O)O)c(C(=O)O)c(C(=O)OCCO)c(C(=O)O)c1C(=O)O [Example A7, mellitic acid ethylene glycol monoester]",1.7,
pyromellitic acid polyethylene glycol monoester [Example A6],2.9,
"O=C(O)c1ccccc1C(=O)O [Phthalic acid, phthalic acid, reference compound]",,3.9
"O=C(O)CCCCCCCC(=O)O [Azelaic acid, azelaic acid, reference compound]",,6.7
"O=C(O)c1ccccc1C(=O)OCCO [Example A1, phthalic acid ethylene glycol monoester]",3.8,
"O=C(O)c1cc(C(=O)O)c(C(=O)O)cc1C(=O)O [Pyromellitic acid, pyromellitic acid, reference compound]",,2.8
"O=C(O)c1ccccc1C(=O)OCCCCCCCCCCO [Example A11, phthalic acid 1,10-decanediol monoester]",4.0,
"CCCCCCCCCCOC(=O)c1ccccc1C(=O)O [Example A10, phthalic acid n-decanol monoester]",3.9,
"O=C(O)c1cc(C(=O)O)c(C(=O)OCCO)cc1C(=O)O [Example A5, pyromellitic acid ethylene glycol monoester]",2.6,
"OB(O)O [Boric acid, boric acid, reference compound]",,9.8
"O=C(O)c1ccc(C(=O)O)c(C(=O)O)c1 [Trimellitic acid, trimellitic acid, reference compound]",,3.5
